Data from US11260023B2, “Topical compositions containing rofecoxib and methods of making and using the same” (BRIORI BIOTECH, LLC, priority 2020, dated 2022).
Several values for one entry are separate records, joined by “and”; a condition that tells them apart may be missing. Equal entries are not always repeated.

Test: Solubility of rofecoxib in solvent systems containing two or three solvents; synergistic or antagonist effect
Type: physicochemical
Method: The solubility of rofecoxib in solvent systems containing two or three solvents was determined. In solvent systems containing two solvents, […] of each solvent was added to 100 mg of rofecoxib. In solvent systems containing three solvents, […] of each solvent was added to 100 mg of rofecoxib. The samples were mixed using the protocol for solvent systems containing single solvents above. Serial dilutions of the rofecoxib solvent solutions were made (1:100 v:v), (1:1000 v/v), and (1:2000 v/v). Solvents without rofecoxib were diluted with methanol and used to blank a Beckman DU-7400 spectrophotometer. The absorbance of the samples was determined at a wavelength of 279.1 nm. The concentration of rofecoxib dissolved in the solvent was calculated using Beer's Law. The ability of the solvent systems to synergistically dissolve rofecoxib or antagonistically dissolve rofecoxib (reduce the ability of rofecoxib to dissolve was determined) according to the protocol below. The contribution for solubility of a single solvent in a two-mixture solution was calculated to be ½ of the calculated solubility of rofecoxib in one gram of excipient. Likewise, the contribution for solubility of a three-mixture was calculated to be ⅓ of the calculated solubility of rofecoxib in one gram of excipient. The expected solubility for a mixture is the addition of the contribution of each excipient. […] The percent change between the expected solubility and actual solubility was determined. […] Similar calculations are utilized for solvent systems containing three or more solvents.

expected solubility of rofecoxib in 500 μg of acetone (contribution of acetone in system of equal amounts acetone and benzyl alcohol): 11.79 mg/g
expected solubility of rofecoxib in 500 μg of benzyl alcohol (contribution of benzyl alcohol in system of equal amounts acetone and benzyl alcohol): 9.77 mg/g
% Change (observed vs expected solubility) (in AC + DGME): 139.9%
Expected Solubility (in AC + DGME): 16.30 mg/g
Observed Solubility (in AC + DGME): 22.80 mg/g
% Change (observed vs expected solubility) (in AC + EA): 109.7%
Expected Solubility (in AC + EA): 14.52 mg/g
Observed Solubility (in AC + EA): 15.92 mg/g
% Change (observed vs expected solubility) (in AC + MP): 97.9% and 52.7%
Expected Solubility (in AC + MP): 110.77 mg/g
Observed Solubility (in AC + MP): 108.48 mg/g and 58.38 mg/g
% Change (observed vs expected solubility) (in AC + MP + PEG): 34.29%
Expected Solubility (in AC + MP + PEG): 78.24 mg/g
% Change (observed vs expected solubility) (in AC + MP + PGD): 77.19%
Expected Solubility (in AC + MP + PGD): 76.17 mg/g
% Change (observed vs expected solubility) (in AC + PEG): 137.2% and 174.3%
Expected Solubility (in AC + PEG): 18.34 mg/g
Observed Solubility (in AC + PEG): 25.15 mg/g and 31.96 mg/g
Expected Solubility (in AC + PEG + PGD): 14.55 mg/g
% Change (observed vs expected solubility) (in AC + PGD): 124.0% and 113.7%
Expected Solubility (in AC + PGD): 15.23 mg/g
Observed Solubility (in AC + PGD): 18.88 mg/g and 17.32 mg/g
% Change (observed vs expected solubility) (in BA + AC): 150.7% and 134.8% and 100.7% and 185.3%
Expected Solubility (in BA + AC): 21.54 mg/g and 31.65 mg/g
% Change (observed vs expected solubility) (in BA + AC + MP): 48.23%
Expected Solubility (in BA + AC + MP): 80.37 mg/g
Expected Solubility (in BA + AC + PEG): 18.75 mg/g
% Change (observed vs expected solubility) (in BA + AC + PGD): 197.12%
Expected Solubility (in BA + AC + PGD): 16.68 mg/g
Observed Solubility (in BA + AC + PGD): 32.89 mg/g
Expected Solubility (in BA + AC, listed as rofecoxib): 21.56 mg/g
% Change (observed vs expected solubility) (in BA + DGME): 64.2%
Expected Solubility (in BA + DGME): 14.31 mg/g
Observed Solubility (in BA + DGME): 9.18 mg/g
% Change (observed vs expected solubility) (in BA + EA): 116.8%
Expected Solubility (in BA + EA): 12.52 mg/g
Observed Solubility (in BA + EA): 14.63 mg/g
% Change (observed vs expected solubility) (in BA + MP): 41.3% and 30.8%
Expected Solubility (in BA + MP): 108.77 mg/g
Observed Solubility (in BA + MP): 44.97 mg/g and 33.53 mg/g
% Change (observed vs expected solubility) (in BA + MP + PEG): 40.43%
Expected Solubility (in BA + MP + PEG): 76.89 mg/g
% Change (observed vs expected solubility) (in BA + MP + PGD): 85.42%
Expected Solubility (in BA + MP + PGD): 74.82 mg/g
% Change (observed vs expected solubility) (in BA + PEG): 63.2% and 61.6% and 60.6%
Expected Solubility (in BA + PEG): 16.34 mg/g
Observed Solubility (in BA + PEG): 10.33 mg/g and 10.06 mg/g and 9.91 mg/g
Expected Solubility (in BA + PEG + PGD): 13.20 mg/g
% Change (observed vs expected solubility) (in BA + PGD): 110.9% and 103.2%
Expected Solubility (in BA + PGD): 13.24 mg/g
Observed Solubility (in BA + PGD): 14.67 mg/g and 13.66 mg/g
% Change (observed vs expected solubility) (in DGME + EA): 117.3%
Expected Solubility (in DGME + EA): 7.29 mg/g
Observed Solubility (in DGME + EA): 8.54 mg/g
% Change (observed vs expected solubility) (in DGME + PGD): 115.7%
Expected Solubility (in DGME + PGD): 8.00 mg/g
Observed Solubility (in DGME + PGD): 9.26 mg/g
% Change (observed vs expected solubility) (in DI + AC): 134.6%
Expected Solubility (in DI + AC): 31.34 mg/g
Observed Solubility (in DI + AC): 42.18 mg/g
% Change (observed vs expected solubility) (in DI + BA): 72.3%
Expected Solubility (in DI + BA): 29.34 mg/g
Observed Solubility (in DI + BA): 21.20 mg/g
% Change (observed vs expected solubility) (in DI + BA + DMSO): 85.05%
Expected Solubility (in DI + BA + DMSO): 67.43 mg/g
% Change (observed vs expected solubility) (in DI + BA + PC): 155.19%
Expected Solubility (in DI + BA + PC): 36.04 mg/g
Observed Solubility (in DI + BA + PC): 55.93 mg/g
% Change (observed vs expected solubility) (in DI + DGME): 95.0%
Expected Solubility (in DI + DGME): 24.11 mg/g
Observed Solubility (in DI + DGME): 22.91 mg/g
% Change (observed vs expected solubility) (in DI + EA): 69.9%
Expected Solubility (in DI + EA): 22.32 mg/g
Observed Solubility (in DI + EA): 15.60 mg/g
% Change (observed vs expected solubility) (in DI + MP): 71.6%
Expected Solubility (in DI + MP): 118.57 mg/g
Observed Solubility (in DI + MP): 84.92 mg/g
% Change (observed vs expected solubility) (in DI + PC): 133.9% and 130.6%
Expected Solubility (in DI + PC): 44.29 mg/g
Observed Solubility (in DI + PC): 59.30 mg/g and 57.83 mg/g
% Change (observed vs expected solubility) (in DI + PC + AC): 143.72%
Expected Solubility (in DI + PC + AC): 37.38 mg/g
Observed Solubility (in DI + PC + AC): 53.73 mg/g
% Change (observed vs expected solubility) (in DI + PC + BA): 132.30%
Expected Solubility (in DI + PC + BA): 36.04 mg/g
Observed Solubility (in DI + PC + BA): 47.68 mg/g
% Change (observed vs expected solubility) (in DI + PC + DGME): 123.28%
Expected Solubility (in DI + PC + DGME): 32.55 mg/g
Observed Solubility (in DI + PC + DGME): 40.12 mg/g
% Change (observed vs expected solubility) (in DI + PC + DMSO): 114.83%
Expected Solubility (in DI + PC + DMSO): 77.39 mg/g
% Change (observed vs expected solubility) (in DI + PC + EA): 128.04%
Expected Solubility (in DI + PC + EA): 31.36 mg/g
Observed Solubility (in DI + PC + EA): 40.15 mg/g
% Change (observed vs expected solubility) (in DI + PC + PEG): 119.10%
Expected Solubility (in DI + PC + PEG): 33.90 mg/g
Observed Solubility (in DI + PC + PEG): 40.38 mg/g
% Change (observed vs expected solubility) (in DI + PC + PGD): 115.12%
Expected Solubility (in DI + PC + PGD): 31.83 mg/g
Observed Solubility (in DI + PC + PGD): 36.65 mg/g
% Change (observed vs expected solubility) (in DI + PEG): 105.8%
Expected Solubility (in DI + PEG): 26.14 mg/g
Observed Solubility (in DI + PEG): 27.65 mg/g
SMILES: CS(=O)(=O)c1ccc(C2=C(c3ccccc3)C(=O)OC2)cc1 [Rofecoxib]
Synergistic effect of three-solvent systems on dissolving rofecoxib (AC/PEG/PGD, BA/AC/PEG, BA/PEG/PGD, PC/AC/PGD, BA/AC/PGD, PC/PEG/PGD, DI/PC/AC, PC/BA/AC, DI/PC/BA, DI/PC/EA, PC/AC/PEG, DI/PC/DGME, DI/PC/PEG, DI/PC/PGD, DI/BA/PC, DI/PC/DMSO): work synergistically to dissolve rofecoxib
Synergistic effect of two-solvent systems on dissolving rofecoxib (BA/AC, AC/PEG, EA/PPG, PEG/EA, AC/DGME, AC/PC, AC/DI, PC/DI, PEG/PGD, AC/PGD, DI/PGD, PC/PGD, EA/DMSO, PEG/DGME, EA/DGME, EA/BA, DGME/PGD, BA/PGD, EA/M24D): work synergistically to dissolve rofecoxib
Observed Solubility (in BA + AC): 32.46 mg/g and 29.03 mg/g and 31.86 mg/g and 39.91 mg/g
